Laboratory results published in the supplement of paper PMC11061612.

How the values were obtained:
Assay in all cases: Bliss excess, mean over the matrix (fraction); higher = more synergy
[1] = system: CAPAN-2 (Pancreatic Carcinoma)
Method in brief: (§1)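 After 24 hours at 37°C and 5% CO2 in 1536-well plates, cells in DMEM/F12 or RPMI plus 10% FBS received two-drug dose matrices for 72 hours. Viability came from CellTiter-Glo 2.0 luminescence and was scaled as inhibition, anchored at 0 by vehicle wells and at 1 by blank wells. Combination Emax is taken as the second-highest inhibition in the matrix, and Bliss excess as the observed combination effect less EA + EB − EA·EB, with EA and EB the single-agent effects.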

[2] = system: OS-RC-2 (Kidney Carcinoma)
Method in brief: as §1

[3] = system: NCI-H2066 (Squamous Cell Lung Carcinoma)
Method in brief: as §1

[4] = system: ONS-76 (Other Solid Carcinomas)
Method in brief: as §1

[5] = system: FU97 (Gastric Carcinoma)
Method in brief: as §1

[6] = system: PANC-10-05 (Pancreatic Carcinoma)
Method in brief: as §1

[7] = system: GI-ME-N (Neuroblastoma)
Method in brief: as §1

[8] = system: NCI-H2591 (Mesothelioma)
Method in brief: as §1

[9] = system: HCC1954 (Breast Carcinoma)
Method in brief: as §1

[10] = system: MDST8 (Colorectal Carcinoma)
Method in brief: as §1

[11] = system: 8-MG-BA (Glioblastoma)
Method in brief: as §1

[12] = system: TT2609-C02 (Thyroid Gland Carcinoma)
Method in brief: as §1

[13] = system: KARPAS-422 (B-Cell Non-Hodgkin's Lymphoma)
Method in brief: as §1

[14] = system: Hs-445 (Non-Cancerous)
Method in brief: as §1

[15] = system: SISO (Cervical Carcinoma)
Method in brief: as §1

[16] = system: NCI-H1693 (Lung Adenocarcinoma)
Method in brief: as §1

[17] = system: JSC-1 (B-Cell Non-Hodgkin's Lymphoma)
Method in brief: as §1

[18] = system: COLO-824 (Breast Carcinoma)
Method in brief: as §1

[19] = system: IGR-37 (Melanoma)
Method in brief: as §1

[20] = system: NCI-H2141 (Small Cell Lung Carcinoma)
Method in brief: as §1

SMILES | Bliss excess [1] | Bliss excess [2] | Bliss excess [3] | Bliss excess [4] | Bliss excess [5] | Bliss excess [6] | Bliss excess [7] | Bliss excess [8] | Bliss excess [9] | Bliss excess [10] | Bliss excess [11] | Bliss excess [12] | Bliss excess [13] | Bliss excess [14] | Bliss excess [15] | Bliss excess [16] | Bliss excess [17] | Bliss excess [18] | Bliss excess [19] | Bliss excess [20]
Cc1cc2ncnn2cc1Nc1ncc2c(n1)n(C1CCOCC1)c(=O)n2C [AZD7648] + O=C(c1cc(Cc2n[nH]c(=O)c3ccccc23)ccc1F)N1CCN(C(=O)C2CC2)CC1 [Olaparib] (first compound max 10 µM, 7x7, partner max 10 µM) | -0.0757 | -0.0486 | -0.0624 | -0.0419 | -0.0879 | -0.0426 | -0.0382 | -0.0403 | -0.045 | -0.043 | -0.0184 | -0.0276 | -0.0358 | 0.0006 | -0.0226 | -0.0299 | -0.0148 | -0.0115 | -0.057 | -0.0603
NC1(C(=O)N[C@@H](CCO)c2ccc(Cl)cc2)CCN(c2ncnc3[nH]ccc23)CC1 [Capivasertib] + CC(=O)c1c(C)c2cnc(Nc3ccc(N4CCNCC4)cn3)nc2n(C2CCCC2)c1=O [Palbociclib] (first compound max 10 µM, 7x7, partner max 10 µM) | -0.0164 | 0.0249 | -0.033 | 0.027 | -0.0168 | -0.0526 | -0.0823 | -0.0717 | -0.0292 | -0.0378 | -0.0501 | -0.0398 | -0.012 | -0.0616 | 0.0057 | -0.0631 | -0.0107 | -0.0495 | -0.0344 | -0.0936
NC1(C(=O)N[C@@H](CCO)c2ccc(Cl)cc2)CCN(c2ncnc3[nH]ccc23)CC1 [Capivasertib] + CC(C)n1c(=O)n(C)c2cnc3cc(F)c(-c4ccc(OCCCN5CCCCC5)nc4)cc3c21 [AZD1390] (first compound max 10 µM, 7x7, partner max 0.3 µM) | -0.0651 | -0.0779 | -0.0222 | -0.0894 | -0.0099 | -0.101 | -0.0993 | -0.0804 | -0.056 | -0.0327 | -0.0557 | -0.0609 | -0.0685 | -0.0763 | -0.0782 | -0.111 | -0.0888 | -0.0137 | -0.0528 | -0.0051
NC1(C(=O)N[C@@H](CCO)c2ccc(Cl)cc2)CCN(c2ncnc3[nH]ccc23)CC1 [Capivasertib] + CCN(CCO)CCCOc1ccc2c(Nc3cc(CC(=O)Nc4cccc(F)c4)[nH]n3)ncnc2c1 [AZD2811] (first compound max 10 µM, 7x7, partner max 1 µM) | -0.0213 | -0.0136 | -0.0641 | -0.0191 | -0.004 | -0.0943 | -0.0557 | -0.0025 | 0.0073 | 0.011 | 0.0289 | -0.0075 | -0.0291 | -0.0895 | 0.0229 | -0.0446 | 0.0082 | -0.0183 | 0.0123 | -0.0237
NC1(C(=O)N[C@@H](CCO)c2ccc(Cl)cc2)CCN(c2ncnc3[nH]ccc23)CC1 [Capivasertib] + COc1nnc2ccc(N3CCC(c4ccc(OCCN5CCN(C)C(=O)[C@H]5C)cc4)CC3)nn12 [AZD5153] (first compound max 10 µM, 7x7, partner max 1 µM) | -0.0143 | 0.117 | 0.0135 | 0.0234 | -0.0154 | -0.0114 | -0.0309 | 0.0183 | 0.0641 | 0.105 | -0.0338 | -0.0366 | -0.0511 | -0.027 | 0.009 | -0.0062 | -0.0312 | 0.0218 | 0.0011 | 0.0061
NC1(C(=O)N[C@@H](CCO)c2ccc(Cl)cc2)CCN(c2ncnc3[nH]ccc23)CC1 [Capivasertib] + C[C@@H]1COCCN1C2=NC(=NC(=C2)C3(CC3)[S@](=N)(=O)C)C4=C5C=CNC5=NC=C4 [AZD6738] (first compound max 10 µM, 7x7, partner max 10 µM) | -0.0194 | -0.0398 | -0.0782 | -0.0636 | -0.0176 | -0.0946 | -0.0269 | 0.0021 | 0.0105 | -0.0277 | -0.004 | -0.0158 | -0.0575 | -0.0531 | -0.0474 | -0.0526 | 0.0036 | -0.0655 | 0.0138 | 0.0049
NC1(C(=O)N[C@@H](CCO)c2ccc(Cl)cc2)CCN(c2ncnc3[nH]ccc23)CC1 [Capivasertib] + Cn1cnc2c(F)c(Nc3ccc(Br)cc3Cl)c(C(=O)NOCCO)cc21 [Selumetinib] (first compound max 10 µM, 7x7, partner max 10 µM) | 0.0332 | -0.0412 | -0.0867 | 0.0914 | 0.0653 | 0.0147 | -0.0544 | -0.0052 | 0.0405 | 0.0211 | 0.0362 | -0.0213 | 0.0608 | 0.0479 | 0.0089 | -0.0375 | 0.0954 | 0.0166 | -0.0258 | -0.051
Cc1nc(Nc2ncc(C(=O)Nc3c(C)cccc3Cl)s2)cc(N2CCN(CCO)CC2)n1 [Dasatinib] + CC(=O)Nc1cccc(-n2c(=O)n(C3CC3)c(=O)c3c(Nc4ccc(I)cc4F)n(C)c(=O)c(C)c32)c1 [Trametinib] (first compound max 2 µM, 7x7, partner max 1 µM) | 0.0749 | -0.0396 | -0.0033 | -0.0206 | 0.0039 | 0.0735 | -0.0849 | -0.0757 | 0.0318 | -0.106 | 0.0219 | 0.0898 | -0.0371 | -0.0873 | -0.0267 | 0.0432 | -0.117 | -0.0774 | -0.121 | -0.0362
COc1cccc2c1C(=O)c1c(O)c3c(c(O)c1C2=O)C[C@@](O)(C(=O)CO)C[C@@H]3O[C@H]1C[C@H](N)[C@H](O)[C@H](C)O1 [Doxorubicin] + Cc1cc2ncnn2cc1Nc1ncc2c(n1)n(C1CCOCC1)c(=O)n2C [AZD7648] (first compound max 1 µM, 7x7, partner max 10 µM) | -0.0419 | -0.0114 | -0.0396 | 0.0314 | -0.0094 | -0.0557 | 0.0207 | 0.0556 | 0.0849 | 0.0756 | 0.0675 | 0.0486 | 0.0699 | 0.102 | 0.0937 | 0.036 | 0.063 | 0.0742 | 0.0631 | 0.0099
COc1cc2ncnc(Nc3ccc(F)c(Cl)c3)c2cc1OCCCN1CCOCC1 [Gefitinib] + CC(C)n1c(=O)n(C)c2cnc3cc(F)c(-c4ccc(OCCCN5CCCCC5)nc4)cc3c21 [AZD1390] (first compound max 10 µM, 7x7, partner max 0.3 µM) | -0.0652 | -0.0817 | 0.0099 | -0.0386 | -0.0177 | -0.0835 | -0.0827 | -0.0801 | -0.0366 | -0.0584 | -0.0604 | -0.0716 | -0.0363 | -0.0356 | -0.0627 | -0.04 | -0.0911 | -0.0795 | -0.0865 | -0.0464
CS(=O)(=O)CCNCc1ccc(-c2ccc3ncnc(Nc4ccc(OCc5cccc(F)c5)c(Cl)c4)c3c2)o1 [Lapatinib] + C[C@@H](Oc1cc(-c2cnn(C3CCNCC3)c2)cnc1N)c1c(Cl)ccc(F)c1Cl [Crizotinib] (first compound max 10 µM, 7x7, partner max 10 µM) | -0.0341 | -0.0186 | -0.0066 | -0.0667 | -0.0144 | -0.109 | -0.0505 | -0.0493 | 0.0048 | -0.0095 | -0.0365 | -0.023 | -0.0649 | 0.0147 | -0.0214 | -0.0069 | -0.0008 | 0.002 | -0.0432 | -0.0758
CC(=O)c1c(C)c2cnc(Nc3ccc(N4CCNCC4)cn3)nc2n(C2CCCC2)c1=O [Palbociclib] + CC1(C)CCC(CN2CCN(c3ccc(C(=O)NS(=O)(=O)c4ccc(NCC5CCOCC5)c([N+](=O)[O-])c4)c(Oc4cnc5[nH]ccc5c4)c3)CC2)=C(c2ccc(Cl)cc2)C1 [Venetoclax] (first compound max 10 µM, 7x7, partner max 1 µM) | -0.0473 | -0.0385 | -0.027 | -0.0115 | -0.0281 | -0.107 | -0.0514 | 0.0045 | -0.0424 | -0.0059 | 0.0049 | 0.0069 | 0.0434 | 0.119 | -0.0384 | 0.0079 | -0.0127 | 0.0365 | -0.0528 | -0.0298
CC(=O)c1c(C)c2cnc(Nc3ccc(N4CCNCC4)cn3)nc2n(C2CCCC2)c1=O [Palbociclib] + Cc1c2c(nn1C)CSCc1cc(n(C)n1)CSc1cc(c3ccccc3c1)OCCCc1c(C(=O)O)n(C)c3c-2c(Cl)ccc13 [AZD5991] (first compound max 10 µM, 7x7, partner max 1 µM) | -0.0593 | -0.0419 | -0.0361 | -0.0372 | 0.0142 | -0.0768 | -0.0873 | -0.0328 | -0.09 | -0.0134 | -0.0424 | -0.0822 | -0.0221 | -0.0598 | -0.0282 | -0.0168 | -0.0567 | -0.0768 | -0.0335 | -0.0791
